Test results from patent publication US6649639B2, “Antipicornaviral compounds, compositions containing them, and methods for their use” (priority 1997, dated 2003).

Columns and labels:
HRV serotype-14 = assay: Antirhinoviral HI-HeLa Cell Culture Assay (XTT cell protection), HRV-14; format: cell-based, human rhinovirus; settings: HRV serotype-14, HI-HeLa cells
Protocol: (§1) In the Cell Protection Assay, the ability of compounds to protect cells against HRV infection was measured by the XTT dye reduction method. This method is described in Weislow, O. S., Kiser, R., Fine, D. L., Bader, J., Shoemaker, R. H., Boyd, M. R., J. Natl. Cancer Inst. 1989, 81, 577-586, the disclosure of which is incorporated herein by reference.
(§2) Infected or mock-infected cells were suspended at 8×10^5 cells per mL and incubated with appropriate concentrations of compounds of formula I. Two days later, XTT/PMS was added to test plates, and the amount of formazan produced was quantified spectrophotometrically at 450/650 nm. […] The therapeutic index (TI) was calculated by dividing the CC50 by the EC50.
(§3) All strains of human rhinovirus (HRV) for use in this assay were purchased from American Type Culture Collection (ATCC) except for HRV serotype-14, which was produced from the infectious cDNA clone constructed and supplied to Applicants by Dr. Robert Rueckert at the Institute for Molecular Virology, University of Wisconsin, Madison, Wis. HRV stocks were propagated, and viral assays were performed in HI-HeLa cells (ATCC). Cells were grown in Minimal Essential Medium, available from Life Technologies, with 10% fetal bovine serum.
(§4) The compounds were tested against control compounds WIN 51711, WIN 52084, and WIN 54954, all obtained from Sterling-Winthrop Pharmaceuticals, and control compound Pirodavir, obtained from Janssen Pharmaceuticals. Antiviral data obtained for the test compounds are shown in Table 2 where all data are for HRV serotype-14 unless otherwise noted in parentheses.

HI-HeLa cells [1] = assay: Cytotoxicity (CC50) in mock-infected HI-HeLa cells, antirhinoviral assay; format: cell-based
HRV serotype 2 = assay: Antirhinoviral HI-HeLa Cell Culture Assay (XTT cell protection), HRV serotype 2; format: cell-based, human rhinovirus; settings: HRV serotype 2, HI-HeLa cells
Protocol: as §1, §2, §3, §4

HRV serotype 10 = assay: Antirhinoviral HI-HeLa Cell Culture Assay (XTT cell protection), HRV serotype 10; format: cell-based, human rhinovirus; settings: HRV serotype 10, HI-HeLa cells
Protocol: as §1, §2, §3, §4

HRV serotype 89 = assay: Antirhinoviral HI-HeLa Cell Culture Assay (XTT cell protection), HRV serotype 89; format: cell-based, human rhinovirus; settings: HRV serotype 89, HI-HeLa cells
Protocol: as §1, §2
as §3, with “serum. […]” for “serum.”

HRV serotype 39 = assay: Antirhinoviral HI-HeLa Cell Culture Assay (XTT cell protection), HRV serotype 39; format: cell-based, human rhinovirus; settings: HRV serotype 39, HI-HeLa cells
Protocol: as §1, §2
as §3, with “serum. […]” for “serum.”

HI-HeLa cells [2] = assay: Cytotoxicity (CC50) in uninfected HI-HeLa cells, anticoxsackieviral assay; format: cell-based; settings: CVA-21 assay
Protocol: The Coxsackie strain A-21 (CVA-21) was purchased from American Type Culture Collection (ATCC). Virus stocks were propagated, and antiviral assays were performed in HI-HeLa cells (ATCC). Cells were grown in Minimal Essential Medium with 10% fetal bovine serum.
The ability of compounds to protect cells against CVA-21 infection was measured by the XTT dye reduction method. This method is described in Weislow, O. S., Kiser, R., Fine, D. L., Bader, I., Shoemaker, R. H., Boyd, M. R., J. Natl. Cancer Inst. 1989, 81, 577-586, the disclosure of which is incorporated herein by reference. HI-HeLa cells were infected with CVA-21 at a multiplicity of infection (m.o.i.) of 0.05 (CVA-21) or mock-infected with medium only. Infected or uninfected cells were resuspended at 4×10^4 cells per mL and incubated with appropriate concentrations of drug. One day later, XTT/PMS was added to test plates, and the amount of formazan produced was quantified spectrophotometrically at 450/650 nm. […] The therapeutic index (Th) was calculated by dividing the CC50 by the EC50.

HRV serotype 16 = assay: Antirhinoviral HI-HeLa Cell Culture Assay (XTT cell protection), HRV serotype 16; format: cell-based, human rhinovirus; settings: HRV serotype 16, HI-HeLa cells
Protocol: as §1, §2
as §3, with “serum. […]” for “serum.”

HRV serotype 1A = assay: Antirhinoviral HI-HeLa Cell Culture Assay (XTT cell protection), HRV serotype 1A; format: cell-based, human rhinovirus; settings: HI-HeLa cells
Protocol: as §1, §2, §3, §4

[3] = molecular target: T1, Recombinant Rhinovirus 3C protease serotype 14 (Human rhinovirus 14, UniProt P03303); assay: Inhibition of Rhinovirus Protease (FRET assay), serotype 14; format: biochemical, human rhinovirus (HRV) serotype 14; settings: for kobs/I: RVP serotype-14, enzyme start progress curves
T1 construct: Recombinant Rhinovirus 3C proteases from serotypes 14, 16, and 2; made in house

[4] = molecular target: Recombinant Rhinovirus 3C protease serotype 16 (Human rhinovirus 16, UniProt Q82122); settings: RVP serotype 16; enzyme start progress curves
Protocol: (§5) Stock solutions (50 mM, in DMSO) of various compounds were prepared; dilutions were in the same solvent. […] Assays contained 2% DMSO, 50 mM tris pH 7.6, 1 mM EDTA, a compound at the indicated concentrations, approximately 1 μM substrate, and 50-100 nM protease. […] The kobs/I values were obtained from reactions initiated by addition of enzyme rather than substrate. RVP activity is measured in the fluorescence resonance energy transfer assay.
(§6) In the above table, all data are for RVP serotype-14 unless otherwise noted in parentheses. All strains of human rhinovirus (HRV) were purchased from American Type Culture Collection (ATCC) except for serotype 14, which was produced from the infectious cDNA clone constructed and supplied to Applicants by Dr. Robert Rueckert at the Institute for Molecular Virology, University of Wisconsin, Madison, Wis. The column designated INHIB represents the percent inhibition at 10 minute preincubation with 50 nM RVP prior to addition of substrate. The data in the column designated kobs/I was measured from progress curves in enzyme start experiments.

[5] = molecular target: Recombinant Rhinovirus 3C protease serotype 2 (Human rhinovirus 2, UniProt P04936); settings: RVP serotype 2; enzyme start progress curves
Protocol: as §5, §6

T1 sequence (P03303 1538-1719): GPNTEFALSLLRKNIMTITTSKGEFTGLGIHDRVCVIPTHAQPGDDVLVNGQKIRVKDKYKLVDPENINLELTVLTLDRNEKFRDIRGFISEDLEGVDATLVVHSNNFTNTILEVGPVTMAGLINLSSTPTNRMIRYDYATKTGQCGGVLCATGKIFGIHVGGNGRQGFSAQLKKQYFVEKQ
Recombinant Rhinovirus 3C protease serotype 16, sequence (Q82122 1511-1693): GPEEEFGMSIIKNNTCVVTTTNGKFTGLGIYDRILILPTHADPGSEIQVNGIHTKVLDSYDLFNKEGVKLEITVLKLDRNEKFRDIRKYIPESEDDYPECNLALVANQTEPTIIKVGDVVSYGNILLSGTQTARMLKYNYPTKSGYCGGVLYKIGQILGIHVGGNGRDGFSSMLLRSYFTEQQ
Recombinant Rhinovirus 3C protease serotype 2, sequence (P04936 1508-1690): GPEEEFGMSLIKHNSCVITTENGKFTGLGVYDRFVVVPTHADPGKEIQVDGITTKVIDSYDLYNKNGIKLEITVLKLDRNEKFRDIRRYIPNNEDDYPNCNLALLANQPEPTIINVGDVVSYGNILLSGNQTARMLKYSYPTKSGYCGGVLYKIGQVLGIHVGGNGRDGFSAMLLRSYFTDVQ

| Molecule | EC50 (HRV serotype-14) [µM] | CC50 (HI-HeLa cells [1]; line of HRV serotype-14) [µM] | EC50 (HRV serotype 10) [µM] | CC50 (HI-HeLa cells [1]; line of HRV serotype 10) [µM] | EC50 (HRV serotype 1A) [µM] | CC50 (HI-HeLa cells [1]; line of HRV serotype 1A) [µM] | further results |
| --- | --- | --- | --- | --- | --- | --- | --- |
| CCOC(=O)/C=C/C(CCC(N)=O)NC(=O)C(CC(=O)C(NC(=O)SCc1ccccc1)C(C)C)Cc1ccccc1 [Compound 5, Ethyl-3-(BnSCO-L-ValΨ[COCH2]-L-Phe-L-Gln)-E-Propenoate] | 0.19 | > 320 |  |  |  |  |  |
| CCOC(=O)/C=C/C(CCC(N)=O)NC(=O)C(CC(=O)C(NC(=O)SC1CCCC1)C(C)C)Cc1ccccc1 [Compound 7, Ethyl-3-(CyPentylSCO-L-ValΨ[COCH2]-L-Phe-L-Gln)-E-Propenoate] | 0.022 | > 10 | 0.035 | > 10 |  |  | EC50 (HRV serotype 2): 0.1 µM; EC50 (HRV serotype 89): 0.004 µM; EC50 (HRV serotype 39): 0.13 µM; CC50 (HI-HeLa cells [1]; line of HRV serotype 2): > 10 µM; CC50 (HI-HeLa cells [1]; line of HRV serotype 39): > 10 µM; CC50 (HI-HeLa cells [1]; line of HRV serotype 89): > 10 µM; CC50 (HI-HeLa cells [2]): > 10 µM |
| CCOC(=O)/C=C/C(CCC(N)=O)NC(=O)C(CC(=O)C(NC(=O)SC1CCCC1)C(C)C)Cc1ccc(C)cc1 [Compound 11, Ethyl-3-(CyPentylSCO-L-ValΨ[COCH2]-L-(p-CH3)Phe-L-Gln)-E-Propenoate] | 0.006 | > 3 | 0.06 | > 3 | 0.16 | > 3 | EC50 (HRV serotype 2): 0.12 µM; EC50 (HRV serotype 39): 0.13 µM; EC50 (HRV serotype 16): 0.025 µM; CC50 (HI-HeLa cells [1]; line of HRV serotype 2): > 3 µM; CC50 (HI-HeLa cells [1]; line of HRV serotype 16): > 3 µM; CC50 (HI-HeLa cells [1]; line of HRV serotype 39): > 3 µM |
| CC(C)C(NC(=O)SC1CCCC1)C(=O)CC(Cc1ccc(F)cc1)C(=O)NC(C=CC(=O)OCc1cccnc1)CCC(N)=O (stereo not drawn) [Compound 28] |  | > 10 | 1 | > 10 | 0.6 | > 10 |  |
| CCOC(=O)C=CC(CCC(N)=O)NC(=O)C(CC(=O)C(NC(=O)c1cc(C)on1)C(C)C)Cc1ccc(F)cc1 (stereo not drawn) [Compound 34] |  | > 3 | 0.4 | > 3 | 0.3 | > 3 |  |
| CC(C)C(NC(=O)C1SCCS1)C(=O)CC(Cc1ccc(F)cc1)C(=O)NC(C=CC(=O)OCc1cccnc1)CCC(N)=O (stereo not drawn) [Compound 30] | 1.5 | > 100 |  |  |  |  | kobs/I [3]: 292,000 M^−1sec^−1 |
| CCOC(=O)C=CC(CCC(N)=O)NC(=O)C(CC(=O)C(NC(=O)C1SCCS1)C(C)C)Cc1ccc(F)cc1 (stereo not drawn) [Compound 27] |  | > 1 | 3.3 | > 1 |  | > 1 |  |
| CCOC(=O)/C=C/C(CCC(N)=O)NC(=O)C(CC(=O)C(CC(C)C)NC(=O)SCc1ccccc1)Cc1ccccc1 [Compound 6, Ethyl-3-(BnSCO-L-LeuΨ[COCH2]-L-Phe-L-Gln)-E-Propenoate] | 0.68 | > 100 |  |  |  |  |  |
| CCOC(=O)/C=C/[C@H](CCC(N)=O)NC(=O)[C@@H](CC(=O)[C@@H](NC(=O)SCC)C(C)C)Cc1ccc(C)cc1 [Compound 10, Ethyl-3-(EtSCO-L-ValΨ[COCH2]-L-(p-CH3)Phe-L-Gln)-E-Propenoate] | 0.011 | > 1 |  |  |  |  | EC50 (HRV serotype 2): 0.18 µM; CC50 (HI-HeLa cells [1]; line of HRV serotype 2): > 1 µM |
| CC(C)C(NC(=O)SC1CCCC1)C(=O)CC(Cc1ccc(F)cc1)C(=O)NC(C=CC(=O)OCCO)CCC(N)=O (stereo not drawn) [Compound 33] | 0.51 | > 32 | 1.6 | > 32 | 1.7 | > 32 | kobs/I [3]: 281,000 M^−1sec^−1 |
| CCOC(=O)C=CC(CCC(N)=O)NC(=O)C(CC(=O)C(NC(=O)C1SCCCS1)C(C)C)Cc1ccc(F)cc1 (stereo not drawn) [Compound 31] |  | > 3 | 4.7 | > 3 | 6.3 | > 3 |  |
| Cc1cc(CCCCCOc2c(Cl)cc(C3=NCCO3)cc2Cl)on1 [WIN 54954, reference compound] |  |  |  |  |  |  | CC50 (HI-HeLa cells [2]): > 100 µM |
| CCOC(=O)/C=C/C(CCC(N)=O)NC(=O)C(CC(=O)C(CC(C)C)NC(=O)OCc1ccccc1)Cc1ccccc1 [Compound 1, Ethyl-3-(CBZ-L-LeuΨ[COCH2]-L-Phe-L-Gln)-E-Propenoate] | 0.36 | > 320 |  |  |  |  | kobs/I [3]: 17,380 M^−1sec^−1; kobs/I [4]: 3,880 M^−1sec^−1; kobs/I [5]: 2,242 M^−1sec^−1 |
| CC(C)C(NC(=O)SC(C)(C)C)C(=O)CC(Cc1ccc(F)cc1)C(=O)NC(C=CC(=O)OCc1cccnc1)CCC(N)=O (stereo not drawn) [Compound 32] | 0.4 | > 32 | 1.9 | > 32 | 2.2 | > 32 | kobs/I [3]: 58,000 M^−1sec^−1 |
| CCOC(=O)C=CC(CCC(N)=O)NC(=O)C(CC(=O)C(NC(=O)SC(C)(C)C)C(C)C)Cc1ccc(F)cc1 (stereo not drawn) [Compound 26] | 0.05 | > 10 | 0.55 | > 10 |  | > 10 |  |
| CC(C)CC(NC(=O)SCc1ccccc1)C(=O)CC(Cc1ccccc1)C(=O)NC(C=CC(=O)N1CCc2ccccc21)CCC(N)=O [Compound 3, (2,3-Dihydroindole)-3-(BnSCO-L-LeuΨ[COCH2]-L-Phe-L-Gln)-E-Propenamide] |  |  |  |  |  |  | Ki [3]: > 7 µM |
| CCOC(=O)/C=C/[C@H](CCC(N)=O)NC(=O)[C@@H](CC(=O)[C@H](CC(C)C)NC(=O)SC1CCCC1)Cc1ccccc1 [Compound 8, Ethyl-3-(CyPentylSCO-L-LeuΨ[COCH2]-L-Phe-L-Gln)-E-Propenoate] | 0.19 | > 100 |  |  |  |  |  |
| CCOC(=O)/C=C/[C@H](CCC(N)=O)NC(=O)[C@@H](CC(=O)[C@@H](NC(=O)SCC)C(C)C)Cc1ccccc1 [Compound 4, Ethyl-3-(EtSCO-L-ValΨ[COCH2]-L-Phe-L-Gln)-E-Propenoate] | 0.1 | > 320 |  |  |  |  | EC50 (HRV serotype 2): 0.5 µM; CC50 (HI-HeLa cells [1]; line of HRV serotype 2): > 320 µM |
| Ethyl-3-(CyPentylSCO-L-CyhexΨ[COCH2]-L-(p-F)Phe-L-Gln)-E-Propenoate [Compound 24] | 0.032 |  |  |  |  |  |  |
| CCOC(=O)/C=C/[C@H](CCC(N)=O)NC(=O)[C@@H](CC(=O)[C@H](CC(C)C)NC(=O)SCC)Cc1ccccc1 [Compound 2, Ethyl-3-(EtSCO-L-LeuΨ[COCH2]-L-Phe-L-Gln)-E-Propenoate] | 0.24 | > 320 |  |  |  |  | EC50 (HRV serotype 2): 1.8 µM; CC50 (HI-HeLa cells [1]; line of HRV serotype 2): > 320 µM |
